What all share (format): cell-based
Holding throughout (conditions): complete inhibition of growth, Sabourauds and dextrose broth, 35° C., 48 hr, highest concentration 20 μg/ml

One assay has as its system Histoplasma capsulatum.
The test system of the next assay is Candida albicans. Briefly: microtiter broth dilution antifungal assay (MIC). As for the experimental part: (§1) The presence or amount of a pseudomycin or mixture of pseudomycins can be determined by measuring the antifungal activity of a preparation. Antifungal activity was determined in vitro by obtaining the minimum inhibitory concentration (MIC) of the preparation using a standard agar dilution test or a disc-diffusion test. A preparation of one or more pseudomycins can be an extract of a cell culture, or a more purified mixture. A typical fungus employed in testing antifungal activity is C. albicans. Antifungal activity was considered significant when the test preparation caused 10-12 mm diameter zones of inhibition on Candida albicans x657 seeded agar plates.
(§2) The antifungal studies were conducted using a microtiter broth dilution assay according to National Committee for Clinical Laboratory Standards guidelines in 96 well microtiter plates. Sabourauds and dextrose broth was adjusted to contain 2.5×10^4 conida/ml. Test compound was dissolved in water and tested in two-fold dilutions starting with the highest concentration of 20 μg/ml. Plates were incubated at 35° C. for 48 hr.
On the technique in general: In broth dilution the organism is exposed to a series of concentrations in liquid medium.

In the next assay the test system is Aspergillus fumigatus. Briefly: microtiter broth dilution antifungal assay (MIC). The protocol: as §1, §2
Another assay concerns Cryptococcus neoformans. Briefly: microtiter broth dilution antifungal assay (MIC). As for the experimental part:
as §1, §2

Another assay has as its system C. parapsilosis. Put plainly: microtiter broth dilution antifungal assay (MIC). The protocol:
as §1, §2

Values after ≈ are worked out from the molar mass of the structure shown. Bridge positions count the residues as written; N and C are the ends. Square brackets hold non-standard residues; d marks the D form. Peptide text beside a SMILES is read from it. * marks the point of attachment. Asp(3S-OH) = N[C@H](C(=O)O)[C@H](O)C(=O)O; Thr(4-Cl) = N[C@H](C(=O)O)[C@H](O)CCl; X1 = CCCCCCCCCCCC(O)C(O)CC(=O)*; aThr = C[C@H](O)[C@H](N)C(=O)O; X2 = CCCCCCCCCC(O)CC(=O)*; dDab = NCC[C@@H](N)C(=O)O; Dab = NCC[C@H](N)C(=O)O; Dhb = C/C=C(\N)C(=O)O

This note sets out measurements from US6793925B2 (priority 1999, dated 2004).

Broadly, the MIC is the lowest concentration found to suppress growth. Low values mean greater potency, high ones weaker potency.

As for `C/C=C1\NC(=O)[C@H]([C@H](C)O)NC(=O)[C@H](CCN)NC(=O)[C@H](CCCCN)NC(=O)[C@H](CC(=O)O)NC(=O)[C@@H](CCN)NC(=O)[C@@H](NC(=O)CC(O)CCCCCCCCC)COC(=O)[C@H]([C@H](O)CCl)NC(=O)[C@H]([C@H](O)C(=O)O)NC1=O` (stereo partly drawn) [Pseudomycin B′, pseudomycin B′] (X2-S[dDab]DK[Dab][aThr][Dhb][Asp(3S-OH)][Thr(4-Cl)]; ester 1-C), the MIC against Histoplasma capsulatum was 1.25-5.0 μ/ml; in the assay with Candida albicans, 10 µg/mL (≈ 8.48 µM); against Aspergillus fumigatus, above 20 µg/mL; with Cryptococcus neoformans, 1.25 µg/mL (≈ 1.06 µM); in the assay with C. parapsilosis, 10 µg/mL (≈ 8.48 µM).

For the compound `C/C=C1\NC(=O)[C@H]([C@H](C)O)NC(=O)[C@H](CCN)NC(=O)[C@H](CCCCN)NC(=O)[C@H](CC(=O)O)NC(=O)[C@@H](CCN)NC(=O)[C@@H](NC(=O)CC(O)C(O)CCCCCCCCCCC)COC(=O)[C@H]([C@H](O)CCl)NC(=O)[C@H]([C@H](O)C(=O)O)NC1=O` (stereo partly drawn) [Pseudomycin A′, pseudomycin A′] (X1-S[dDab]DK[Dab][aThr][Dhb][Asp(3S-OH)][Thr(4-Cl)]; ester 1-C), the MIC is 5.0 µg/mL (≈ 4.04 µM) against Histoplasma capsulatum; 2.5 µg/mL (≈ 2.02 µM) against Candida albicans; above 20 µg/mL in the assay on Aspergillus fumigatus; 1.25 µg/mL (≈ 1.01 µM) with Cryptococcus neoformans; 5.0 µg/mL (≈ 4.04 µM) with C. parapsilosis.
